The source of these data is paper PMC6759624, “Unraveling Heparan Sulfate Proteoglycan Binding Motif for Cancer Cell Selectivity” (Frontiers in Oncology, 2019).

Assay [1] relates to cancer cells or tissues. Further details: method as in PMID 27255651, PMID 23713525. Conditions: competitors heparin and HS; ref [13], [19]; cited from earlier work.
Assay [2] relates to syndecan-3. Put plainly: SPR, NT4 binding to recombinant syndecan-3. Also on record: species or system human. Conditions: rHSPG 25 μg/mL over immobilized NT4. Here is the method: (§1) Experiments were performed on a Biacore T100 instrument (GE Healthcare). All materials were purchased from GE Healthcare unless otherwise specified. Full-length recombinant human HSPG were purchased from R&D Systems. Syndecan-3, syndecan-4, and glypican-3 were obtained from the mouse myeloma cell line (NS0), and glypican-4 was obtained from the Chinese Hamster Ovary cell line. The activity of syndecan-4, glypican-3, and glypican-4 was measured by the supplier as the ability of the immobilized protein to bind FGF-basic. The activity of syndecan-3 was measured by the supplier as the ability of the immobilized protein to inhibit adhesion of Saos-2 human osteosarcoma cells to human fibronectin.
(§2) NT4-biotin was captured on a CM5 sensor chip where streptavidin had previously been immobilized by standard amine coupling. Briefly, the sensor chip surface was activated with a mixture of 0.1 M 1-ethyl-3(3-dimethylaminopropyl)-carbodiimide (EDC) and 0.4 M N-hydroxyl succinimide (NHS) for 7 min at a flow rate of 5 μl/min. Streptavidin was injected over the surface for 7 min, and finally, 1 M ethanolamine pH 8.5 was used to block any activated carboxyl groups. […]
(§3) Kinetics were analyzed with the Biacore T100 evaluation 1.1.1 software using the 1:1 Langmuir model to fit the curves.
(In general: Surface plasmon resonance follows binding to a sensor surface in real time, without labels.)

Assay [3] has as its system glypican-4. Briefly: SPR, NT4 binding to recombinant glypican-4. Conditions: rHSPG over immobilized NT4. Also on record: species or system human. Here is the method: as §1, §2, §3
Assay [4] concerns syndecan-4. Briefly: SPR, NT4 binding to recombinant syndecan-4. Also on record: species or system human. Conditions: rHSPG over immobilized NT4. On the procedure:
as §1, §2, §3

Assay [5] deals with cancer cells. Conditions: ref [20]; cited from earlier work. An excerpt:
NT4 is already known to have major effects on cancer cells, such as inhibition of migration and invasion of ECM induced by FGF ([20]).

The subject of assay [6] is MCF-7 human breast adenocarcinoma. Put plainly: NT4 binding to cells by flow cytometry. In kind it is cell-based. Conditions: heparinase I/III blend 0.03 IU/ml, 1 h + 1 h at 37°C, 1 μM NT4-biotin, 30 min, room temperature, streptavidin–FITC, repeated two times. Here is the method:
(§4) PANC-1 human pancreas adenocarcinoma, HT-29 human colon adenocarcinoma, and MCF-7 and MDA-MB-231 human breast adenocarcinoma cells were grown in the recommended American Type Culture Collection (ATCC) media, supplemented with 10% fetal calf serum, 200 μg/ml glutamine, 100 μg/ml streptomycin, 60 μg/ml penicillin, and maintained at 37°C, 5% CO2. Cell lines were purchased from ATCC, and cell profiling was analyzed to authenticate human cell lines (BMR Genomics).
(§5) All experiments were performed using 2 × 10^5 cells in 96-well U-bottom plates. All dilutions were performed in phosphate-buffered saline (PBS), containing 5 mM EDTA and 1% bovine serum albumin (BSA).
(§6) Cells were incubated with 1 μM NT4-biotin for 30 min at room temperature and then incubated with 1 μg/ml streptavidin–fluorescein isothiocyanate (FITC). For heparinase treatment, cells were incubated for 1 h at 37°C on the plates with 0.03 IU/ml heparinase I/III blend (Sigma Aldrich), and then harvested and incubated with the same concentration of heparinase in suspension for an additional hour at 37°C before NT4 staining. All experiments were repeated two times. P values were calculated using a two-tailed Student t-test and GraphPad Prism 5.0 software.
(In flow cytometry, cells or beads pass a laser one at a time.)

In assay [7] the test system is HT-29 human colon adenocarcinoma. Briefly: NT4 binding to cells by flow cytometry. To be noted: 1 μM NT4-biotin. The format is cell-based. On the procedure: as §4, §5, §6
In assay [8] the test system is MDA-MB-231 human breast adenocarcinoma. Put plainly: NT4 binding to cells by flow cytometry. The format is cell-based. Conditions: heparinase I/III blend 0.03 IU/ml, 1 h + 1 h at 37°C, 1 μM NT4-biotin, 30 min, room temperature, streptavidin–FITC, repeated two times. Here is the method:
as §4, §5, §6

Assay [9] has as its system PANC-1 human pancreas adenocarcinoma. Briefly: NT4 binding to cells by flow cytometry. To be noted: 1 μM NT4-biotin. In kind it is cell-based. On the procedure:
as §4, §5, §6

Assay [10] relates to breast cancer cells. To be noted: ref [13], [20]; cited from earlier work. The text has this:
(§7) NT4 peptides can be conjugated with different functional units and can selectively deliver drugs for cancer therapy or transport tracers for tumor imaging ([11], [12], [15]–[18]). […] NT4 transports the chemotherapeutic moiety to the cancer cell membrane and, ultimately, into the cell ([14]–[16]). In animal models of cancer, the higher concentration of the cytotoxic drug at the site of the tumo ...

For assay [11], the system named is pancreas adenocarcinoma cells. To be noted: ref [13]; cited from earlier work.
Excerpt: as §7

“Also recorded” adds a separate entry of the source.

For the substance (pyELYENKPRRPYIL)4K2K-beta-Ala [NT4], in assay [1], the “inhibition of NT4 binding and internalization by heparin and HS” value was “completely inhibited”. For the same substance, in [2], the “binding to syndecan-3” value is “does not bind; also recorded: did not bind”. In assay [3], the “binding to glypican-4” value is recorded as “bound; also recorded: binds”. Also, the “binding to syndecan-4” value in [4] is reported as “binds”. Also, the “effect on migration and invasion of ECM induced by FGF” value in assay [5] is “inhibition”. For the same substance, the “NT4 binding after heparinase treatment” value in assay [6] is given as “much lower than to control cells”; in [7] (HT-29, heparinase I/III blend 0.03 IU/ml, 1 h + 1 h at 37°C, 30 min, room temperature, streptavidin–FITC, repeated two times), “much lower than to control cells”; in [8], “much lower than to control cells”; in assay [9] (PANC-1, heparinase I/III blend 0.03 IU/ml, 1 h + 1 h at 37°C, 30 min, room temperature, streptavidin–FITC, repeated two times), “much lower than to control cells”. In addition, the “NT4 cell binding relative to other cell lines” value in assay [7] (HT-29 (low sulfatase expression) versus MCF-7 and MDA-MB-231, flow cytometry) was “bind NT4 better than the others; also recorded: higher in cell lines with lower expression of sulfatases”; in assay [9] (PANC-1 (low sulfatase expression) versus MCF-7 and MDA-MB-231, flow cytometry), “bind NT4 better than the others; also recorded: higher in cell lines with lower expression of sulfatases”. Moreover, the “effect on growth factor-induced migration and invasiveness” value in assay [10] is “inhibited”. In addition, in assay [11], the “effect on oriented migration” value was “inhibited”.
